Among the test systems are OVCAR-4; OVCAR-3; IGROV-1; COLO 205; UACC-62; NCI-H226; SW-620; SF-539; SN12C; SK-MEL-5; HCT-15; MDA-MB-435; MCF7; HCC 2998; SNB-75; M14; HT-29; NCI/ADR-RES; EKVX.
Experiment in all cases: DTP human tumour cell line panel, 48 h

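Five concentrations, 48 hours, 96-well plates. Abbreviation: GI50, concentration required for 50% inhibition of growth.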 Activity calls are given as the source filed them. Rule as the data show it: active = GI50 up to about 1.1 µM and inactive = higher.

Broadly, the GI50 is the concentration giving 50% growth inhibition. Consider `Cc1cc(C)n(-c2nc(C)c(CCO)c(=O)[nH]2)n1`, for which the GI50 in the experiment on OVCAR-4, in the experiment on OVCAR-3, in the experiment with IGROV-1, with COLO 205, in the experiment on UACC-62 and with NCI-H226 was > 100 µM (inactive) throughout. For the same compound, the GI50 in the experiment on SW-620 was > 100 µM (inactive); with SF-539, > 100 µM (inactive); with SN12C, > 100 µM (inactive); in the experiment on SK-MEL-5 it was > 100 µM (inactive); in the experiment with HCT-15, over 100 µM; with MDA-MB-435 it was > 100 µM (inactive). For the same compound, the GI50 is > 100 µM (inactive) with MCF7; > 100 µM (inactive) in the experiment with HCC 2998; 97.5 µM (inactive) in the experiment on SNB-75; > 100 µM (inactive) with M14; > 100 µM (inactive) with HT-29; 52 µM (inactive) in the experiment with NCI/ADR-RES. Moreover, the GI50 with EKVX is > 100 µM (inactive).
For the compound `O=C(Nc1sccc1S(=O)(=O)c1ccc(Cl)cc1)c1ccc(F)cc1F`, the GI50 in the experiment with OVCAR-4 was 21.2 µM (inactive); with OVCAR-3, 37.4 µM (inactive); with IGROV-1 it was 30.6 µM (inactive); in the experiment with COLO 205, > 100 µM (inactive); in the experiment with UACC-62, 25.8 µM (inactive); in the experiment with NCI-H226, 26.7 µM (inactive). In addition, the GI50 is 73.1 µM (inactive) in the experiment with SW-620; 14.3 µM (inactive) with SF-539; 56.8 µM (inactive) in the experiment with SN12C; 49.4 µM (inactive) with SK-MEL-5; 66.4 µM in the experiment on HCT-15; > 100 µM (inactive) in the experiment with MDA-MB-435. The GI50 with MCF7 is 40.5 µM (inactive); in the experiment with HCC 2998, > 100 µM (inactive); with SNB-75 it was 19.3 µM (inactive); in the experiment on M14, > 100 µM (inactive); in the experiment on HT-29 it was > 100 µM (inactive); in the experiment with NCI/ADR-RES, 32.3 µM (inactive). The GI50 in the experiment on EKVX is 19.6 µM (inactive).
As for `O=C1CCCCCCCCCCC1CCCCCBr` (stereo unspecified), the GI50 in the experiment on OVCAR-4 was 16.9 µM (inactive); in the experiment with OVCAR-3, 17.4 µM (inactive); in the experiment on IGROV-1, 20.1 µM (inactive); in the experiment with COLO 205, 19.4 µM (inactive); in the experiment with UACC-62 it was 31.1 µM (inactive); with NCI-H226 it was 20.8 µM (inactive). Also, the GI50 was 42.5 µM (inactive) with SW-620; 22.8 µM (inactive) in the experiment with SF-539; 22.3 µM (inactive) with SN12C; 15.3 µM (inactive) in the experiment on SK-MEL-5; 24.3 µM in the experiment on HCT-15; 40.8 µM (inactive) in the experiment with MDA-MB-435. Further, the GI50 is 37 µM (inactive) in the experiment on MCF7; 18.5 µM (inactive) in the experiment on HCC 2998; 16.3 µM (inactive) in the experiment on SNB-75; 33 µM (inactive) in the experiment with M14; 25.9 µM (inactive) in the experiment with HT-29; 21.7 µM (inactive) in the experiment with NCI/ADR-RES. Besides, the GI50 in the experiment with EKVX was 41.7 µM (inactive).
On to `O=[N+]([O-])C(=C1NCCN1)/C(Cl)=C(\Cl)Br`, for which the GI50 with OVCAR-4 was 46.5 µM (inactive); in the experiment on OVCAR-3, 18 µM (inactive); in the experiment with IGROV-1, 52.2 µM (inactive); in the experiment with COLO 205, 19.6 µM (inactive); in the experiment with UACC-62 it was 43.1 µM (inactive); in the experiment with NCI-H226, > 81.8 µM (inactive). For the same compound, the GI50 was 13.5 µM (inactive) in the experiment with SW-620; > 63 µM (inactive) in the experiment with SF-539; 41.2 µM (inactive) in the experiment on SN12C; 51.9 µM (inactive) in the experiment on SK-MEL-5; 4.98 µM in the experiment with HCT-15; 29.4 µM (inactive) in the experiment with MDA-MB-435. Also, the GI50 in the experiment with MCF7 was 30.3 µM (inactive); in the experiment with HCC 2998, 60 µM (inactive); with SNB-75, 27.2 µM (inactive); in the experiment with M14, 38.3 µM (inactive); in the experiment on HT-29, 30.1 µM (inactive); with NCI/ADR-RES it was > 63.1 µM (inactive). For the same compound, the GI50 with EKVX was > 43.4 µM (inactive).

The values are drawn from ChEMBL document CHEMBL1201862, “PubChem BioAssay data set” (2004).
